# Values quoted from earlier work, collected in publication PMC8672822 (RSC Medicinal Chemistry, 2021).
# Where two headings read alike, the source gives them in different places.
# Assays:
# DC-SIGN [1] = conditions: SPR competition
# murine Mincle = conditions: murine isoform
# [2] = system: peripheral blood mononuclear cells (PBMCs) or bone marrow-derived macrophages (BMDM)
# human Mincle = conditions: human isoform
# Langerin [3] = system: Langerin
# DC-SIGN [4] = conditions: monovalent
# [5] = in comparison to Man-α-1,2-Man
# DC-SIGN [6] = system: DC-SIGN
# DC-SIGN [7] = conditions: ITC
# Langerin [8] = system: Langerin; remark: listed apart in the source
# DC-SIGN [9] = conditions: SPR direct
# DC-SIGN [10] = conditions: relative to plate assay
molecule,measurement,setting,value
2-C-aminomethyl-D-mannose [compound 21],IC50,DC-SIGN [1],350 µM
"Cc1cc(O)cc(O)c1C(=O)OC[C@H]1O[C@H](O[C@H]2O[C@H](COC(=O)c3c(C)cc(O)cc3O)[C@@H](O)[C@H](O)[C@H]2O)[C@H](O)[C@@H](O)[C@@H]1O [compound 3, brartemicin]",binding,murine Mincle,no binding
same,Mincle-induced immune activation,[2],no or a less effective Mincle-induced immune activation
same,Ki,bovine Mincle,5.5 µM
same,binding,human Mincle,no binding
CC(=O)NCCO[C@@H]1O[C@H](CO)[C@@H](O)[C@H](O)[C@H]1NS(=O)(=O)c1ccc(C)cc1 [compound 19],increase in binding affinity compared to the reference N-acetyl glucosamine,Langerin [3],13 fold
NC(=O)[C@H](CCC(=O)O)NC(=O)[C@H]1C[C@@H](O)[C@H](O)[C@H](O)[C@H]1SCCCCSCc1cccc(F)c1 [compound 22],IC50,DC-SIGN [4],3200 µM
COC(=O)[C@H]1C[C@H](OCCN)[C@@H](O[C@H]2O[C@H](CO)[C@@H](O)[C@H](O)[C@@H]2O)C[C@@H]1C(=O)OC [compound 24],resistance towards enzymatic digestion,[5],more resistant
same,"activity in comparison to Man-α-1,2-Man",DC-SIGN+ cells,three times more active
[N-]=[N+]=NCCO[C@H]1C[C@H](C(=O)NCc2ccc(CO)cc2)[C@@H](C(=O)NCc2ccc(CO)cc2)C[C@@H]1O[C@H]1O[C@H](CO)[C@@H](O)[C@H](O)[C@@H]1O [compound 25],IC50,DC-SIGN [6]; SPR competition,300 µM
[N-]=[N+]=NCCO[C@H]1C[C@H](C(=O)NCc2ccc(CO)cc2)[C@@H](C(=O)NCc2ccc(CO)cc2)C[C@@H]1O[C@H]1O[C@H](CN)[C@@H](O)[C@H](O)[C@@H]1O [compound 26],Kd,DC-SIGN [7],171 µM
same,selectivity for DC-SIGN over Langerin,Langerin [8],fully selective for DC-SIGN over Langerin
same,Kd,DC-SIGN [9],310 µM
same,IC50,DC-SIGN [6]; SPR competitive,254 µM
NCc1cn([C@@H]2[C@@H](O[C@H]3C[C@H](C(=O)NCc4ccc(CO)cc4)[C@@H](C(=O)NCc4ccc(CO)cc4)C[C@@H]3OCCCl)O[C@H](CO)[C@@H](O)[C@@H]2O)nn1 [compound 27],Kd,DC-SIGN [7],52 µM
same,selectivity for DC-SIGN over Langerin,Langerin [8],full selectivity against Langerin
same,Kd,DC-SIGN [9],53 µM
same,IC50,DC-SIGN [6]; SPR competitive,76 µM
CC(C)OC(=O)c1ccc(-c2ccc(/C=C3\C(=O)N(c4ccc(S(N)(=O)=O)cc4)N=C3C(F)(F)F)o2)cc1 [compound 33],decrease in affinity in cellular assay,DC-SIGN [10],up to 100 fold
NC(=O)c1ccc(CCCC2Nc3ccc(C(=O)N4CCN(c5ncccn5)CC4)cc3NC2=O)cc1 (stereo not shown) [compound 35],aqueous solubility,,improved aqueous solubility
NS(=O)(=O)c1ccc(CCCC2Nc3ccc(C(=O)N4CCN(c5ccncc5)CC4)cc3NC2=O)cc1 (stereo not shown) [compound 36],aqueous solubility,,improved aqueous solubility
OC[C@H]1O[C@H](O[C@H]2O[C@H](CO)[C@@H](O)[C@H](O)[C@H]2O)[C@H](O)[C@@H](O)[C@@H]1O [trehalose],macrophage activation,macrophage,no effect
